This passage reports Ki results from patent US7851469B2, “Isoxazole-imidazole derivatives” (Hoffmann-La Roche Inc., priority 2007, dated 2010).

In this test the target is T1, GABA A receptor α5β3γ2 (hα5) (Homo sapiens, UniProt P18507+P31644).
T1 construct: expressed in transfected cells; host or cells: HEK293 (transiently transfected; membranes)
Put plainly: [3H]flumazenil competition binding assay, human GABA A α5 receptor. The note with it: displacement of [3H]flumazenil (0.5 nM) from HEK293 cell membranes expressing α5β3γ2; means of two determinations. As for the experimental part:
Membrane Preparation and Binding Assay
The affinity of compounds at GABA A receptor subtypes was measured by competition for [3H]flumazenil (85 Ci/mmol; Roche) binding to HEK293 cells expressing rat (stably transfected) or human (transiently transfected) receptors of composition α1β3γ2, α2β3γ2, α3β3γ2 and α5β3γ2.
Cell pellets were suspended in Krebs-tris buffer (4.8 mM KCl, 1.2 mM CaCl2, 1.2 mM MgCl2, 120 mM NaCl, 15 mM Tris; pH 7.5; binding assay buffer), homogenized by polytron for ca. 20 sec on ice and centrifuged for 60 min at 4° C. (50000 g; Sorvall, rotor: SM24=20000 rpm). The cell pellets were resuspended in Krebs-tris buffer and homogenized by polytron for ca. 15 sec on ice. Protein was measured (Bradford method, Bio-Rad) and aliquots of 1 mL were prepared and stored at −80° C.
Radioligand binding assays were carried out in a volume of […] (96-well plates) which contained […] of cell membranes, [3H]flumazenil at a concentration of 1 nM for α1, α2, α3 subunits and 0.5 nM for α5 subunits and the test compound in the range of […]. Nonspecific binding was defined by 10^−5 M diazepam and typically represented less than 5% of the total binding. Assays were incubated to equilibrium for 1 hour at 4° C. and harvested onto GF/C uni-filters (Packard) by filtration using a Packard harvester and washing with ice-cold wash buffer (50 mM Tris; pH 7.5). After drying, filter-retained radioactivity was detected by liquid scintillation counting. Ki values were calculated using Excel-Fit (Microsoft) and are the means of two determinations.
(In general: Displacement assays read how much labelled ligand stays bound in the presence of the test substance.)

Regarding `FC(F)(F)c1ccc(-n2cnc(-c3c(-c4ccccc4)noc3C(F)(F)F)c2)cc1` [Example 4, 3-Phenyl-5-trifluoromethyl-4-[1-(4-trifluoromethyl-phenyl)-1H-imidazol-4-yl]-isoxazole], the affinity, expressed as Ki, was 39.7 nM.
With `CC(=O)c1ccc(-n2cnc(-c3c(-c4ccc(F)cc4)noc3C(F)(F)F)c2)nc1` [Example 36, 1-(6-{4-[3-(4-Fluoro-phenyl)-5-trifluoromethyl-isoxazol-4-yl]-imidazol-1-yl}-pyridin-3-yl)-ethanone] the figure was 17.2 nM; with `Cc1ccc(-n2cnc(-c3c(-c4ccccc4)noc3C(F)(F)F)c2)cc1` [Example 8, 3-Phenyl-4-(1-p-tolyl-1H-imidazol-4-yl)-5-trifluoromethyl-isoxazole], 84.2 nM; with `O=C(NC1CCOCC1)c1ccc(-n2cnc(-c3c(-c4ccccc4)noc3C(F)(F)F)c2)cc1` [Example 13, 4-[4-(3-Phenyl-5-trifluoromethyl-isoxazol-4-yl)-imidazol-1-yl]-N-(tetrahydro-pyran-4-yl)-benzamide], 41.2 nM.
With `O=C(O)c1ccc(-n2cnc(-c3c(-c4ccc(F)cc4)noc3C(F)(F)F)c2)cc1` [Example 28, 4-{4-[3-(4-Fluoro-phenyl)-5-trifluoromethyl-isoxazol-4-yl]-imidazol-1-yl}-benzoic acid] the figure was 76.7 nM; with `O=C(c1ccc(-n2cnc(-c3c(-c4ccc(F)cc4)noc3C(F)(F)F)c2)cc1)N1CCS(=O)(=O)CC1` [Example 35, (1,1-Dioxo-1λ6-thiomorpholin-4-yl)-(4-{4-[3-(4-fluoro-phenyl)-5-trifluoromethyl-isoxazol-4-yl]-imidazol-1-yl}-phenyl)-methanone], 87.4 nM; with `O=C(NC1CC1)c1ccc(-n2cnc(-c3c(-c4ccccc4)noc3C(F)(F)F)c2)cc1` [Example 12, N-Cyclopropyl-4-[4-(3-phenyl-5-trifluoromethyl-isoxazol-4-yl)-imidazol-1-yl]-benzamide], 11.7 nM.
With `O=C(NC1CCOCC1)c1ccc(-n2cnc(-c3c(-c4ccc(Cl)cc4)noc3C(F)(F)F)c2)nc1` [Example 51, 6-{4-[3-(4-Chloro-phenyl)-5-trifluoromethyl-isoxazol-4-yl]-imidazol-1-yl}-N-(tetrahydro-pyran-4-yl)-nicotinamide] the figure was 8.5 nM; with `CC(C)(O)c1ccc(-n2cnc(-c3c(-c4ccc(F)cc4)noc3C(F)(F)F)c2)cc1` [Example 29, 2-(4-{4-[3-(4-Fluoro-phenyl)-5-trifluoromethyl-isoxazol-4-yl]-imidazol-1-yl}-phenyl)-propan-2-ol], 28.4 nM; with `N#Cc1ccc(-n2cnc(-c3c(-c4ccccc4)noc3C(F)(F)F)c2)cc1` [Example 5, 4-[4-(3-Phenyl-5-trifluoromethyl-isoxazol-4-yl)-imidazol-1-yl]-benzonitrile], 41.2 nM.
Regarding `O=C(NCC1CC1)c1ccc(-n2cnc(-c3c(-c4ccccc4)noc3C(F)(F)F)c2)cc1` [Example 10, N-Cyclopropylmethyl-4-[4-(3-phenyl-5-trifluoromethyl-isoxazol-4-yl)-imidazol-1-yl]-benzamide], the Ki (usually a dissociation constant, usually derived from enzyme kinetics or from competition with a known ligand) was 23.6 nM.
`COc1ccc(-n2cnc(-c3c(-c4ccccc4)noc3C(F)(F)F)c2)cc1` [Example 9, 4-[1-(4-Methoxy-phenyl)-1H-imidazol-4-yl]-3-phenyl-5-trifluoromethyl-isoxazole] displayed a Ki of 46.1 nM.
`O=C(NCC(F)(F)F)c1ccc(-n2cnc(-c3c(-c4ccccc4)noc3C(F)(F)F)c2)cc1` [Example 11, 4-[4-(3-Phenyl-5-trifluoromethyl-isoxazol-4-yl)-imidazol-1-yl]-N-(2,2,2-trifluoro-ethyl)-benzamide] had a Ki of 17.6 nM.
Consider `O=C(c1ccc(-n2cnc(-c3c(-c4ccccc4)noc3C(F)(F)F)c2)nc1)N1CCSCC1` [Example 23, {6-[4-(3-Phenyl-5-trifluoromethyl-isoxazol-4-yl)-imidazol-1-yl]-pyridin-3-yl}-thiomorpholin-4-yl-methanone], for which the Ki was found to be 91.1 nM.
On to `O=[N+]([O-])c1ccc(-n2cnc(-c3c(-c4ccccc4)noc3C(F)(F)F)c2)cc1` [Example 7, 4-[1-(4-Nitro-phenyl)-1H-imidazol-4-yl]-3-phenyl-5-trifluoromethyl-isoxazole], for which the affinity, expressed as Ki, was 19.7 nM.
With `O=[N+]([O-])c1ccc(-n2cnc(-c3c(-c4ccc(Cl)cc4)noc3C(F)(F)F)c2)cc1` [Example 47, 3-(4-Chloro-phenyl)-4-[1-(4-nitro-phenyl)-1H-imidazol-4-yl]-5-trifluoromethyl-isoxazole] the figure was 58.6 nM; with `O=C(NC1CC1)c1ccc(-n2cnc(-c3c(-c4ccc(F)cc4)noc3C(F)(F)F)c2)nc1` [Example 40, N-Cyclopropyl-6-{4-[3-(4-fluoro-phenyl)-5-trifluoromethyl-isoxazol-4-yl]-imidazol-1-yl}-nicotinamide], 4.1 nM; with `NC(=O)c1ccc(-n2cnc(-c3c(-c4ccc(F)cc4)noc3C(F)(F)F)c2)cc1` [Example 31, 4-{4-[3-(4-Fluoro-phenyl)-5-trifluoromethyl-isoxazol-4-yl]-imidazol-1-yl}-benzamide], 17.1 nM.
To `N#Cc1ccc(-n2cnc(-c3c(-c4ccc(F)cc4)noc3C(F)(F)F)c2)nc1` [Example 37, 6-{4-[3-(4-Fluoro-phenyl)-5-trifluoromethyl-isoxazol-4-yl]-imidazol-1-yl}-nicotinonitrile] belongs 32.3 nM.
To `CC(=O)c1ccc(-n2cnc(-c3c(-c4ccccc4)noc3C(F)(F)F)c2)cc1` [Example 3, 1-{4-[4-(3-Phenyl-5-trifluoromethyl-isoxazol-4-yl)-imidazol-1-yl]-phenyl}-ethanone] belongs 12.5 nM.
`COC(=O)c1ccc(-n2cnc(-c3c(-c4ccccc4)noc3C(F)(F)F)c2)nc1` [Example 17, 6-[4-(3-Phenyl-5-trifluoromethyl-isoxazol-4-yl)-imidazol-1-yl]-nicotinic acid methyl ester] had a Ki of 31.5 nM.
Molecule `CC(C)(O)c1ccc(-n2cnc(-c3c(-c4ccc(F)cc4)noc3C(F)(F)F)c2)nc1` [Example 43, 2-(6-{4-[3-(4-Fluoro-phenyl)-5-trifluoromethyl-isoxazol-4-yl]-imidazol-1-yl}-pyridin-3-yl)-propan-2-ol] had a Ki of 38.2 nM.
With `FC(F)(F)c1onc(-c2ccccc2)c1-c1cn(-c2ncccn2)cn1` [Example 54, 2-[4-(3-Phenyl-5-trifluoromethyl-isoxazol-4-yl)-imidazol-1-yl]-pyrimidine] the figure was 73 nM.
To `COC(=O)c1ccc(-n2cnc(-c3c(-c4ccc(F)cc4)noc3C(F)(F)F)c2)cc1` [Example 27, 4-{4-[3-(4-Fluoro-phenyl)-5-trifluoromethyl-isoxazol-4-yl]-imidazol-1-yl}-benzoic acid methyl ester] belongs 22.1 nM; to `O=C(NCC(F)(F)F)c1ccc(-n2cnc(-c3c(-c4ccc(F)cc4)noc3C(F)(F)F)c2)nc1` [Example 39, 6-{4-[3-(4-Fluoro-phenyl)-5-trifluoromethyl-isoxazol-4-yl]-imidazol-1-yl}-N-(2,2,2-trifluoro-ethyl)-nicotinamide], 4.9 nM.
To `FC(F)(F)c1onc(-c2ccccc2)c1-c1cn(-c2ccccc2)cn1` [Example 1, 3-Phenyl-4-(1-phenyl-1H-imidazol-4-yl)-5-trifluoromethyl-isoxazole] belongs 53.2 nM.
In turn, `O=C(NC1CC1)c1cnc(-n2cnc(-c3c(-c4ccccc4)noc3C(F)(F)F)c2)cn1` [Example 55, 5-[4-(3-Phenyl-5-trifluoromethyl-isoxazol-4-yl)-imidazol-1-yl]-pyrazine-2-carboxylic acid cyclopropylamide] displayed a Ki of 14.1 nM.
